According to the supplement of paper PMC11962398:

Legend:
[1] = compound: T1, C[C@H]1CNCCN1c1nccc(-c2noc3c2CCC[C@@]32CCCc3sc(N)c(C#N)c32)n1 [BI-2493]; experiment: 1 - AUC of viability dose-response curve (sensitivity) (fraction); higher = more sensitive; conditions: 5 days
Description: (§1)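 PRISM pooled barcoded cancer cell line viability screen (Broad Institute) with BI-2493 at 8 doses in threefold dilutions from 0.00457 to 10 µmol/L, 5-day treatment; curves fitted per cell line. IC50 is undefined (placeholder) for resistant lines. AUC is capped at 1, and sensitivity is reported as 1 − AUC.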

[2] = compound: T1, BI-2493; conditions: 5 days
Description: as §1

Test System	1 - AUC of viability dose-response curve [1]	IC50 of cell viability [2]
L363_HAEMATOPOIETIC_AND_LYMPHOID_TISSUE	0.041	7.78 µM
LAMA84_HAEMATOPOIETIC_AND_LYMPHOID_TISSUE	0.34	0.76 µM
LC1SQSF_LUNG	0.255	> 10 µM
LCLC103H_LUNG	0.0229	8.64 µM
LI7_LIVER	0.213	1.52 µM
LMSU_STOMACH	0.103	5.54 µM
LN18_CENTRAL_NERVOUS_SYSTEM	0.0792	6.48 µM
LN229_CENTRAL_NERVOUS_SYSTEM	0.0706	8.48 µM
LN382_CENTRAL_NERVOUS_SYSTEM	0.0249	8.95 µM
LN464_CENTRAL_NERVOUS_SYSTEM	0.0968	4.83 µM
LNCAPCLONEFGC_PROSTATE	0.152	3.64 µM
LNZ308_CENTRAL_NERVOUS_SYSTEM	0.142	7.52 µM
LOUNH91_LUNG	0.189	> 10 µM
LOVO_LARGE_INTESTINE	0.246	1.17 µM
LOXIMVI_SKIN	0.0241	8.63 µM
LPS141_SOFT_TISSUE	0.0281	> 10 µM
LS180_LARGE_INTESTINE	0.244	1.08 µM
LS513_LARGE_INTESTINE	0.494	0.175 µM
LS1034_LARGE_INTESTINE	0.337	0.575 µM
LS_AUTONOMIC_GANGLIA	0.125	3.67 µM
LU99_LUNG	0.0228	8.77 µM
LUDLU1_LUNG	0.143	4.54 µM
LXF289_LUNG	0.103	8.04 µM
M059K_CENTRAL_NERVOUS_SYSTEM	0.00953	9.49 µM

Test System	1 - AUC of viability dose-response curve [1]	IC50 of cell viability [2]
MALME3M_SKIN	0.0805	6.19 µM
MB1_THYROID	0.165	5.5 µM
MC116_HAEMATOPOIETIC_AND_LYMPHOID_TISSUE	0.0718	5.28 µM
MCC26_SKIN	0.0203	> 10 µM
MCC142_SKIN	0.0347	9.48 µM
MCF7_BREAST	0.0329	8.66 µM
MDAMB175VII_BREAST	0.0449	8.51 µM
MDAMB231_BREAST	0.0666	7.4 µM
MDAMB361_BREAST	0.14	> 10 µM
MDAMB435S_SKIN	0.0956	4.3 µM
MDAMB436_BREAST	0.0282	> 10 µM
MDAMB453_BREAST	0.115	5.47 µM
MDAPCA2B_PROSTATE	0.118	> 10 µM
MDST8_LARGE_INTESTINE	0.00776	9.82 µM
MEG01_HAEMATOPOIETIC_AND_LYMPHOID_TISSUE	0.0154	9.19 µM
MEL285_UVEA	0.145	6.23 µM
MEL290_UVEA	0.105	> 10 µM
MELHO_SKIN	0.131	7.85 µM
MESSA_SOFT_TISSUE	0.17	3.73 µM
MEWO_SKIN	0.0577	9.6 µM
MFE280_ENDOMETRIUM	0.18	> 10 µM
MFE296_ENDOMETRIUM	0.136	9.19 µM
MFE319_ENDOMETRIUM	0.0267	9.02 µM
MG63_BONE	0.0826	9.09 µM

Test System	1 - AUC of viability dose-response curve [1]	IC50 of cell viability [2]
MHHES1_BONE	0.114	8.05 µM
MHHNB11_AUTONOMIC_GANGLIA	0.177	4.36 µM
MKN1_STOMACH	0.305	1.18 µM
MKN7_STOMACH	0.161	8.55 µM
MKN45_STOMACH	0.401	0.5 µM
MKN74_STOMACH	0.117	7.22 µM
MM1S_HAEMATOPOIETIC_AND_LYMPHOID_TISSUE	0.413	0.558 µM
MM127_SKIN	0.0501	7.34 µM
MMNK1_BILIARY_TRACT	0.0714	4.9 µM
MOLM14_HAEMATOPOIETIC_AND_LYMPHOID_TISSUE	0.145	2.79 µM
MOLP2_HAEMATOPOIETIC_AND_LYMPHOID_TISSUE	0.0525	6.56 µM
MOLT3_HAEMATOPOIETIC_AND_LYMPHOID_TISSUE	0.0789	6.51 µM
MOLT13_HAEMATOPOIETIC_AND_LYMPHOID_TISSUE	0.13	5.21 µM
MOLT16_HAEMATOPOIETIC_AND_LYMPHOID_TISSUE	0.297	1.81 µM
MONOMAC1_HAEMATOPOIETIC_AND_LYMPHOID_TISSUE	0.17	7.33 µM
MONOMAC6_HAEMATOPOIETIC_AND_LYMPHOID_TISSUE	0.149	7.72 µM
MON_SOFT_TISSUE	0.163	2.57 µM
MP41_UVEA	0.119	5.17 µM
MPP89_PLEURA	0.0335	9.24 µM
MS751_CERVIX	0.029	8.93 µM
MSTO211H_PLEURA	0.136	3.67 µM
NALM6_HAEMATOPOIETIC_AND_LYMPHOID_TISSUE	0.0753	6.5 µM
NB1_AUTONOMIC_GANGLIA	0.201	3.3 µM
NB4_HAEMATOPOIETIC_AND_LYMPHOID_TISSUE	0.175	2.53 µM

Test System	1 - AUC of viability dose-response curve [1]	IC50 of cell viability [2]
NCCIT_TESTIS	0.192	0.878 µM
NCIH23_LUNG	0.199	3 µM
NCIH28_PLEURA	0.0967	5.43 µM
NCIH82_LUNG	0.0218	8.8 µM
NCIH196_LUNG	0.0864	6.4 µM
NCIH226_LUNG	0.134	5.37 µM
NCIH292_LUNG	0.0643	5.7 µM
NCIH322_LUNG	0.257	2.29 µM
NCIH358_LUNG	0.281	2.33 µM
NCIH441_LUNG	0.168	4.14 µM
NCIH446_LUNG	0.216	4.06 µM
NCIH508_LARGE_INTESTINE	0.088	> 10 µM
NCIH520_LUNG	0.0795	> 10 µM
NCIH522_LUNG	0.0303	9.9 µM
NCIH524_LUNG	0.0829	5.44 µM
NCIH596_LUNG	0.00278	> 10 µM
NCIH647_LUNG	0.171	5.65 µM
NCIH650_LUNG	0.0133	9.27 µM
NCIH661_LUNG	0.155	9.34 µM
NCIH727_LUNG	0.129	6.54 µM
NCIH747_LARGE_INTESTINE	0.384	0.323 µM
NCIH838_LUNG	0.0686	7.55 µM
NCIH841_LUNG	0.162	6.98 µM
NCIH1048_LUNG	0.0696	6.78 µM
